Here are results for 3 molecules from patent publication US20180353445A1, “METHODS AND COMPOSITIONS RELATING TO PROTEASOME INHIBITOR RESISTANCE” (Whitehead Institute for Biomedical Research, priority 2017, published 2018).

Residues, ends and D or L forms follow the SMILES beside them. *: point of attachment. Cbz = O=C(OCc1ccccc1)*

Assay [1] deals with T47D cells. In words: Cell viability, T47D cells with doxycycline-inducible PSMD2 shRNA (KD) vs control. The assay is classed as cell-based, human. The conditions noted are these: doxycycline-regulated PSMD2 shRNA. As for the experimental part:
FIGS. 37A-37E: Subunit suppression results in highly specific drug sensitivity alteration. Schematic representation of the drug screen setup. (FIG. 37A) 147D cells harboring a doxycycline-inducible PSMD2 shRNA were grown in the presence or absence of doxycycline for 48 hr. Cells were then collected, washed, and plated in the absence of doxycycline for 24 hr prior to exposure different compounds. Relative cell numbers were measured 3 days later. […] (FIGS. 37C-37E) The relative viability of the PSMD2 knockdown (KD) versus the control was calculated for replica experiments and the log2 of the ratio is plotted for 349 compounds from the Selleck anti-cancer L3000 drug library that were tested in 4 concentrations (FIG. 37C), the Selleck natural product library (NPC) comprising 502 compounds in 5 doses (FIG. 37D), and the NIH bioactive compound library that includes 731 compounds in 4 doses (FIG. 37E). Specific compounds are annotated.
The effect of transient PSMD2 reduction on growth of T47D cells in the presence of different proteasome inhibitors (bortezomib, MLN9708, carfilzomib, oprozornib) was tested. T47D cells harboring a doxycycline inducible control shRNA (GFP) or a doxycycline-inducible PSMD2 shRNA (TurhoRFP) were incubated with doxycycline for 3 days. Cells were then split and grown in the absence of Dox and proteasome inhibitors were then added at various concentrations. Cells were maintained in culture and then counted.
For the generation of the T47D Tet-inducible PSMD2 knockdown cell line- the TRIPZ vector with an inducible shRNA targeting PSMD2 was purchased from Dhannacon (clone V3THS_403760). It was introduced to the T47D cells according to manufactures protocol and cells were selected with puromycin 1 μg/ml for one week. The cells were exposed to doxycycline for 24 hours and cells were FACS sorted for the top 10% of most RFP expressing cells (highest expression of shRNA). The cells were further cultured in the absence of doxycycline and PSMD2 knockdown was induced as specified in the relevant Examples. The TRIPZ control GFP vector was created by removing the turboRFP from the TRIPZ control vector by digestion with Agel and ClaI and replacing it with GFP amplified with primers flanking with Agel and Clal restriction sites.
Cell Viability Assay—Relative cell growth and survival were measured in 96-well microplate format in the shRNA experiments and in 384 well format in the drug toxicity assays, by using the fluorescent detection of resazurin dye reduction as an endpoint (544 nm excitation and 590 run emission). 2,500 cells in 96 wells format or 1,000 cells in 384 well format were plated 24 hours before compound exposure (for 72 hours or indicated time). Each analysis was performed at least with three replicas.

A further assay has as its system Saccharomyces cerevisiae. In words: Yeast MG132 sensitivity assay, proteasome subunit DAmP strains. The conditions noted are these: five of twelve strains, 50 μM. The assay is classed as cell-based. As for the experimental part:
FIG. 7: Reducing the levels of 19S subunits is an evolutionarily conserved mechanism to acquire resistance to proteasome inhibition.
As the 19S regulatory complex components are essential for viability in yeast, we utilized a library of hypomorphic (DAmP) alleles for essential yeast genes. In this library, the expression of individual mRNA. species is reduced from two to ten-fold by replacing the mRNA's 3′ untranslated region (Breslow et al., 2008).
Yeast cells were grown over night in media containing L-proline as nitrogen source instead of ammonium sulfate. The overnight cultures were diluted into OD 0.1 and were grown in the L-proline culture with 0.003% SDS with or without 50 μM MG-132. OD was measured over the period of 48 hours.

The next assay has as its system cancer cell lines (GDSC). In words: Genomics of Drug Sensitivity in Cancer (GDSC) data analysis, IC50 of bortezomib and MG132 vs 19S expression / sigma score. Format: cell-based, human. The conditions noted are these: GDSC database.
A further assay has as its system cancer cells. In words: Cell viability, elesclomol and elesclomol analogs (cell titer-glo). The assay is classed as cell-based. The conditions noted are these: substitution of oxygen for sulfur group(s). From the text:
In addition to the intrinsic sensitivity of certain cancer cells to elesclomol, as our drug screen indicated, the sensitivity of cancer cells to elesclomol can be further enhanced by forcing them into a Hi-OXPHOS state.
We examined several elesclomol analogs (FIG. 57B) to determine the structural features that are important for mediating its cytotoxicity. […] Substitution of oxygen for even one of the sulfur groups (compound-5) reduced the activity of elesclomol by 300 fold. The loss of activity was even more pronounced (>>300 fold) when both sulfurs were substituted (compound-6) (FIGS. 51C-51D, FIG. 57C). Various other modifications to the elesclomol scaffold were tolerated, as long as the core sulfur geometry remained intact.
(§1) Cell viability—where indicated relative cell number following different drug treatment was conducted by plating cells at 1000 cells/well in 384 well plates. Indicated concentrations of compounds were added 24 hour after plating at least in triplicate for each condition. Viability was measured 72 hours after drug addition using cell titer-glo (Promega) according to manufactures protocol. […]
(In general: In ATP-based viability assays light output follows the ATP content of the culture.)

Another assay concerns MCF7 and HEK293 cells. In words: Cell viability with glucose or galactose as the carbon source. The assay is classed as cell-based, human. The conditions noted are these: 10 mM glucose or 10 mM galactose. As for the experimental part: Cells were treated with increasing concentrations of elesclomol in the presence of either Glucose or Galactose as the carbon source (FIG. 40A). The presence of Galactose will induce a mitochondrial dependent metabolism (FIGS. 40B-40C, Gohil et al., Nature Biotechnology 28, 249-255 (2010)).
The sensitivity of cells to different chemical isoforms of elesclomol was also assessed. […] Removing even one substantially impairs the ability of the molecule to induce toxicity (FIG. 41B).
Cell culture methods—147D, Lo19S T47D, K562 and 293T-HS cells were cultured in RPMI-1640 medium supplemented with 10% fetal bovine serum; HEK293, HEK293T and MCF-7 cells were cultured in Dulbecco's modified Eagle's medium supplemented with 10% fetal bovine serum. For the glucose, galactose experiments media lacking glucose was supplemented with dialyzed serum and either 10 mM Glucose or 10 mM galactose.
as §1

Assay [2] deals with T47D cells. In words: The glucose/galactose drug screen. Format: cell-based, human. The conditions noted are these: 10 mM Glucose or Galactose, Selleck anti cancer and natural product libraries.

From the text for cancer cell lines (GDSC): In some aspects, whether a cancer cell is considered resistant or sensitive to a particular agent may be determined by comparing the IC50 of the agent for the cancer cell with the IC50 of the agent as measured for each cell line in a panel of diverse cancer cell lines. Cancer cells for which the agent has an IC50 in the 10th percentile of IC50 values determined for the agent on a diverse panel of cancer cell lines may be considered sensitive, while cancer cells for which the agent has an IC50 in the 90th percentile of IC50 values determined for the agent on a diverse panel of cancer cell lines may be considered resistant to the agent.
We asked if this might correlate with changes in 19S subunit expression. We analyzed the Genomics of Drug Sensitivity in Cancer (GDSC) database, a public resource of transcriptional data and drug responsiveness collected from a spectrum of human cancer cell lines with diverse tissue origins and diverse oncogenic lesions (Garnett et al., 2012). […]
Further details of methods used in GDSC dataset analysis: Gene expression and drug sensitivity data was downloaded from the World Wide Web at subdomain cancerrxgene.org. […] For each proteasomal subunit gene, a-score was calculated for each cell line. […] P-values were calculated by t-test, comparing the logEC50s between the 3 sigma and not 3 sigma.

`CC(C)C[C@@H](C=O)NC(=O)[C@H](CC(C)C)NC(=O)[C@H](CC(C)C)NC(=O)OCc1ccccc1` [MG132, N-(benzyloxycathonyl)leucinylieucinylieucinal] (Cbz-Leu-Leu-Leu-aldehyde): the “resistance after transient reduction of PSMD2” value in the assay on T47D cells [1] is “significantly increased resistance”. Moreover, in the assay with Saccharomyces cerevisiae, the “resistance of 19S DAmP yeast strains to proteasome inhibition” value is recorded as “significantly increased resistance”. Besides, the “average IC50 value in 3-Sigma cell lines vs all other lines” value in the assay on cancer cell lines (GDSC) is “considerably higher”.
On to `CN(NC(=O)CC(=O)NN(C)C(=S)c1ccccc1)C(=O)c1ccccc1` [compound-5], for which, in the assay on cancer cells, the “reduction of activity relative to elesclomol” value amounted to 300 fold.
Regarding antimycin A, the “sensitivity of cells in galactose (mitochondrial metabolism, Hi-OXPHOS) versus glucose (glycolytic)” value in the assay with MCF7 and HEK293 cells is reported as “This phenomenon is observed”. Also, in the assay with T47D cells [2], the “relative viability change of cells grown in glucose versus galactose” value is given as “increased sensitivity”.
